Consider three compounds from patent US5051419A, “Prevention or elimination of mycoplasma contamination of animal or plant cell cultures” (Dainippon Pharmaceutical Co., Ltd., priority 1988, dated 1991).

Usually MIC stands for the lowest concentration that inhibits growth of the organism. High values mean weaker potency, low ones greater potency. In general, minimal effective concentration refers to the smallest amount tested that counted as effective. Read a low minimal effective concentration as greater potency.

Converted amounts (≈) assume the structure as drawn.

Data set [1] relates to mycoplasma. The data set can be described thus: Anti-mycoplasmal activity (MIC), agar-dilution method, all species of Table 1 together. Format: cell-based. The note with it: in words. As to the method: The minimum growth inhibitory concentrations (MIC; μg/ml) of the test chemicals were measured by the agar-dilution method.
(1) Preparation of a mycoplasma suspension for inoculation
A stored frozen suspension of mycoplasma (0.2 to 0.3 ml) was inoculated in 2 to 3 ml of a preculture medium to be described later. It was serially diluted tenfold until the dilution ratio reached 10,000 times. These diluted solutions were cultivated at 37° C. for 2 to 7 days. A culture having the highest dilution ratio was selected from those cultures in which a color change of the media was noted as a result of mycoplasma growth. It was diluted to 100 times with the preculture medium to prepare a mycoplasma suspension for inoculation.
(2) Preparation of agar plates containing the test chemicals
A 1,000 μg/ml aqueous solution of each test chemical was prepared (a difficultly-soluble chemical was dissolved by adding an equimolar amount of sodium hydroxide; the same applies hereinafter). The solution was used as a base solution and its twofold serial dilutions were prepared. The diluted solutions were pipetted on plastic petri dishes each in an amount of 1 ml. […]

For data set [2], the system named is spontaneously contaminated human lung carcinoma cells [I]. Briefly: Activity of eliminating spontaneously contaminated mycoplasmas, cell [I]. Note: key: +: mycoplasma positive; -: mycoplasma negative. The data set is classed as cell-based, mycoplasma species unknown; human cells. As to the method: (§1) Mycoplasma-contaminated L-929 cells were cultivated as described in the preceding section. A 1,000 μg/ml aqueous solution of a test chemical was prepared, and diluted to predetermined concentrations with Eagle's minimum essential medium. The diluted solutions were added to the culture medium. Two petri dishes were used for each concentration of the test chemical, and two circular cover glasses were put in one of them for examination of mycoplasma. No cover glass was put in the other petri dish, and it was used for subcultivation. Cultivation in the test chemical-containing medium was carried out for 4 days, and thereafter, the cultivation was continued for 3 weeks in a drug-free medium. Medium replacement was effected every 3 to 4 days, and subcultivation was carried out once a week. Examination for mycoplasma contamination was performed on the 4th and 7th days, and thereafter every week. The mycoplasmas were detected by the highly specific DNA-fluorochromic staining method.
(§2) The activity of test compound to eliminate mycoplasma contamination was tested as in Test Example 3 on spontaneously contaminated human lung carcinoma cells [I] and human melanoma cells [II].
(§3) The period during which the cultivation was continued in the presence of the test chemicals was 7 days, and the mycoplasma species which infected the cells were unknown.

For data set [3], the system named is human melanoma cells [II]. Briefly: Activity of eliminating spontaneously contaminated mycoplasmas, cell [II]. Note: key: +: mycoplasma positive; -: mycoplasma negative. Format: cell-based, mycoplasma species unknown; human cells. As to the method:
as §1, §2, §3

A short description of data set [4]: Cytotoxicity on FL cells (cell proliferation inhibition). Format: cell-based, human. The settings on record: human, fl human amnion cells; ratio of FL cell IC50 to MIC for mycoplasmas.
Procedure: (§4) Whether test chemicals would inhibit growth of cells was examined.
(§5) A 1,000 μg/ml aqueous solution of each of the test chemicals was serially diluted twofold with Eagle's minimum essential medium.
(§6) FL human-amnion cells (2×10^4 cells) were suspended in 3.6 ml of 10% FBS-MEM medium, put in petri dishes (diameter 60 mm) for tissue culture, and cultivated at 37° C. in 5% CO2 humidified atmosphere for 48 hours. The test chemical solution prepared as above was added in an amount of 0.4 ml to each of the petri dishes in predetermined concentrations, and the cells were cultivated for 3 days. After the cultivation, the medium was removed, and the remainder was washed once with Dulbecco's phosphate buffer (pH 7.4). The cells were peeled off by adding 0.2 ml of a 2.5% trypsin-0.002% EDTA mixed solution (1:9) and properly diluted with 10% FBS-MEM medium. Then, the number of the cells was counted by an Erma hemocytometer.
(§7) The cell proliferation rate was calculated by following formula [formula]
Another data set has as its system FL human-amnion cells. Described as above. The note with it: for IC50: Homo sapiens, 72 h, FL cells, 3 days, read-out: IC50 (50% cell proliferation inhibitory concentration). Format: cell-based.
Another data set has as its system Staphylococcus aureus. Briefly: Antibacterial activity (MIC). Format: cell-based. The settings on record: for MIC: unit inferred.
In data set [5] the test system is mycoplasma. The settings on record: in words, background; cited from earlier work.
For data set [6], the system named is mycoplasma. Briefly: Activity of eliminating spontaneously contaminated mycoplasmas, Test Example 4 as a whole. Format: cell-based. As to the method: as §2, §3
Data set [7] has as its system chromosomes of animals or plants. The data set can be described thus: Deleterious effects on chromosomes. The settings on record: in words.

Procedure for FL human-amnion cells: as §4, §5, §6, §7

For `CC1CN(c2c(F)c(N)c3c(=O)c(C(=O)O)cn(C4CC4)c3c2F)CCN1` (stereo not drawn) [Compound 1], in the data set on mycoplasma [1], the “anti-mycoplasmal activity (MIC) compared with control compounds” value is reported as “better than those of control compounds 2 to 4”. The mycoplasma elimination result in [2] (0.2 μg/ml, day 0) is “+”; in data set [2] (0.2 μg/ml, day 7), “+”; in data set [2] (0.2 μg/ml, day 14) it was “+”; in data set [2] (0.2 μg/ml, day 28), “+”; in data set [2] (0.39 μg/ml, day 0), “+”; in data set [2] (0.39 μg/ml, day 7), “-”. In addition, the mycoplasma elimination entry is recorded as “-” in data set [2] (0.39 μg/ml, day 14); “-” in data set [2] (0.39 μg/ml, day 28); “+” in data set [3] (0.2 μg/ml, day 0); “-” in data set [3] (0.2 μg/ml, day 7); “+” in data set [3] (0.2 μg/ml, day 14); “+” in data set [3] (0.2 μg/ml, day 21). The mycoplasma elimination result in data set [3] (0.2 μg/ml, day 28) was “+”; in [3] (0.39 μg/ml, day 0), “+”; in [3] (0.39 μg/ml, day 7), “-”; in [3] (0.39 μg/ml, day 14), “-”; in data set [3] (0.39 μg/ml, day 21), “-”; in [3] (0.39 μg/ml, day 28), “-”. For the same compound, in data set [4], the selectivity ratio at 72 h fell in the range of 66 to 528. Besides, in the data set with FL human-amnion cells, the IC50 turned out to be 13.2 µg/mL (≈ 34.9 µM). The MIC in the data set with Staphylococcus aureus (Staphylococcus aureus) was found to be 0.025 µg/mL (≈ 0.0661 µM).
For the compound `CN(C)c1ccc(O)c2c1C[C@H]1C[C@H]3[C@H](N(C)C)C(O)=C(C(N)=O)C(=O)[C@@]3(O)C(O)=C1C2=O` [Compound 3, minocycline], in the data set with mycoplasma [5], the “minimum growth inhibitory concentration (MIC) for mycoplasma” value is “low”; the “mode of action on mycoplasma” value was “only act bacteriostatically and not mycoplasmacidally”.
Regarding `NCC1CN(c2c(F)c(N)c3c(=O)c(C(=O)O)cn(C4CC4)c3c2F)CCO1` (stereo not drawn) [Compound A, 5-amino-7-(2-aminomethylmorpholino)-1-cyclopropyl-6,8-difluoro-1,4-dihydro-4-oxoquinoline-3-carboxylic acid], the “anti-mycoplasmal activity (MIC) compared with control compounds” value in the data set on mycoplasma [1] is reported as “more potent than those of control compounds 1 to 4”. For the same compound, the mycoplasma elimination entry in [2] (0.1 μg/ml, day 0) is listed as “+”; in data set [2] (0.1 μg/ml, day 7) it was “+”; in data set [2] (0.1 μg/ml, day 14), “+”; in [2] (0.1 μg/ml, day 28), “+”; in data set [2] (0.2 μg/ml, day 0), “+”; in data set [2] (0.2 μg/ml, day 7), “-”. Moreover, the mycoplasma elimination entry in data set [2] (0.2 μg/ml, day 14) was “-”; in [2] (0.2 μg/ml, day 28), “-”; in [3] (0.1 μg/ml, day 0) it was “+”; in [3] (0.1 μg/ml, day 7), “-”; in data set [3] (0.1 μg/ml, day 14) it was “+”; in data set [3] (0.1 μg/ml, day 21) it was “+”. In addition, the mycoplasma elimination result in data set [3] (0.1 μg/ml, day 28) was “+”; in data set [3] (0.2 μg/ml, day 0) it was “+”; in [3] (0.2 μg/ml, day 7) it was “-”; in [3] (0.2 μg/ml, day 14), “-”; in data set [3] (0.2 μg/ml, day 21), “-”; in [3] (0.2 μg/ml, day 28), “-”. In the data set with mycoplasma [6] (Mycoplasma, 168 h, spontaneously contaminated cells [I] and [II]), this compound had a minimal effective concentration of 0.2 µg/mL. Further, the “mycoplasma eliminating concentration relative to control compound 1” value in the data set on mycoplasma [6] (fraction of that of control compound 1) is 1/2. For the same compound, the “mycoplasma eliminating concentration relative to control compound 2 (ciprofloxacin)” value with mycoplasma [6] (fraction of that of control compound 2) was 1/32. The selectivity ratio at 72 h in [4] fell in the range of 180 to 1440. In addition, the IC50 in the data set on FL human-amnion cells came out at 18 µg/mL (≈ 45.6 µM). In the data set on FL human-amnion cells (in words, IC50/MIC), the safety range result was “the safety range is broadest in compound A”. Moreover, the “toxicity on cultivated cells” value in the data set on FL human-amnion cells (in words, summary) was “little toxicity on cultivated cells”. Moreover, in the data set on Staphylococcus aureus (Staphylococcus aureus), 0.0063 µg/mL (≈ 0.016 µM) was the least that counted as inhibitory (MIC). Further, the antibacterial activity result with Staphylococcus aureus (in words) was “potent antibacterial activity and is superior to control compounds 1 to 4”. Further, the “antibacterial activity relative to compound 1” value in the data set on Staphylococcus aureus (in words, Staphylococcus aureus) was “about four times as potent antibacterial activity as compound 1”. In [7], the “deleterious effects on chromosomes” value is recorded as “excellent”.
